According to publication PMC2849849 (Neuropharmacology, 2010):
Values joined by “and” are separate entries in the source; they are usually repeats but may differ in a detail not shown here. Identical values can stand only once. “Also recorded” adds a separate entry of the source. Counter-ions that a name gives are not always drawn. Like-named read-outs stand apart in the source and are kept apart here.

Tests used:
[1] = target: T1, α4β2*-nAChR (Mus musculus, UniProt O70174+Q9ERK7); assay: α-CtxMII-resistant [3H]-dopamine release from striatal synaptosomes; assay type: biochemical
[2] = target: T2, α6β2*-nAChR (Mus musculus, UniProt Q9ERK7+Q9R0W9); assay: α-CtxMII-sensitive [3H]-dopamine release from striatal synaptosomes; assay type: biochemical
[3] = target: hα7-nAChR (Homo sapiens, UniProt P36544); assay: cell-based; assay type: cell-based; conditions: for EC50: read-out: EC50 α7; for Emax: GH4-C1, read-out: Efficacy α7
[4] = target: α3β4*-nAChR (Mus musculus, UniProt Q8R493+Q8R4G9); assay: [3H]-ACh release from IPN synaptosomes; assay type: biochemical; conditions: for Functional character at α3β4*: [3H]-ACh release from IPN synaptosomes
[5] = system: α4L9'A knock-in mice; assay: Hypothermia in α4L9'A knock-in mice; assay type: in vivo, mouse; conditions: for Physiological effect α4L9'Aβ2*: ip
[6] = system: α6L9'S transgenic mice; assay: Locomotor activity in α6L9'S transgenic mice; assay type: in vivo, mouse; conditions: for Physiological effect α6L9'Sβ2*: locomotor, ip, dose in parentheses mg/kg
[7] = system: α6L9'S transgenic mice; conditions: ref Drenan et al, 2008, cited from earlier work; for Physiological effect α6L9'Sβ2*: locomotor, ip, dose in parentheses mg/kg
[8] = target: α7-nAChR (Mus musculus, UniProt P49582); assay: biochemical; assay type: binding
[9] = system: α6L9'S mice; conditions: 0.1 mg/kg; unpublished data
[10] = system: α4L9'A knock-in mice; conditions: ref Tapper et al, 2007, cited from earlier work; for Physiological effect α4L9'Aβ2*: ip, dose in parentheses mg/kg
[11] = target: T1, α4β2*-nAChR; conditions: ref Salminen et al, 2004; cited from earlier work
[12] = target: T2, α6β2*-nAChR; conditions: ref Salminen et al, 2004; cited from earlier work
[13] = read-out: Ki α4β2* (1st number, [3H]DA release assay, marked #)
[14] = EC50 α4β2* (1st number, [3H]DA release assay), activation, curve fit
[15] = EC50 α6β2*, activation, α-CtxMII-sensitive DA release
[16] = dose in parentheses mg/kg, block = block of low dose nicotine
[17] = Ki α4β2* (1st number, [3H]DA release assay, marked #)
[18] = EC50 α3β4*, activation, [3H]ACh release

Chain of hα7-nAChR (P36544 23-502): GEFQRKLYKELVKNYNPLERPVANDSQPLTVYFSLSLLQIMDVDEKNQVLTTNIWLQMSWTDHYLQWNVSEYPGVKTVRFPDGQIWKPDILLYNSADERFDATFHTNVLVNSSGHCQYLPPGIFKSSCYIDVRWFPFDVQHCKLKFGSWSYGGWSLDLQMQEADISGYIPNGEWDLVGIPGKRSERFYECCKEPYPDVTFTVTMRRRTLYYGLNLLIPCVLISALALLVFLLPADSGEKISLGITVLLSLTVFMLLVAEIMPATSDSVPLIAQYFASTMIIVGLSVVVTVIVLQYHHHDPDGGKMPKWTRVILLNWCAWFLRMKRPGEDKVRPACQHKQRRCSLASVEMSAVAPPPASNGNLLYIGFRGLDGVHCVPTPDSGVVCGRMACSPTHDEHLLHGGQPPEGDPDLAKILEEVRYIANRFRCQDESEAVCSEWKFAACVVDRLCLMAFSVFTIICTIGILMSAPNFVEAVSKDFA
T2 sequence (Q9R0W9 31-494): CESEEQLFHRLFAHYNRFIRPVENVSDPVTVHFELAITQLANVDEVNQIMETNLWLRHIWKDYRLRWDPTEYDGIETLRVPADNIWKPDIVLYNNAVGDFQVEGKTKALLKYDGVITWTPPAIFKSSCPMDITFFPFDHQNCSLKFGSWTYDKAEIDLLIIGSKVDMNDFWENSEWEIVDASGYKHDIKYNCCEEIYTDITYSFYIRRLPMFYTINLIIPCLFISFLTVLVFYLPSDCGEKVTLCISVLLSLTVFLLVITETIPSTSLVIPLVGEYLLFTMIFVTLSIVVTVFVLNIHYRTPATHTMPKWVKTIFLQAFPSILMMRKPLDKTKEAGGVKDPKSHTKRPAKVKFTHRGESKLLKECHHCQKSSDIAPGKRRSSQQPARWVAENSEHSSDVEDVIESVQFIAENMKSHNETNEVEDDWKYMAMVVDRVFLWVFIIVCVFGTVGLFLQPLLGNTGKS
T2 sequence (Q9ERK7 26-501): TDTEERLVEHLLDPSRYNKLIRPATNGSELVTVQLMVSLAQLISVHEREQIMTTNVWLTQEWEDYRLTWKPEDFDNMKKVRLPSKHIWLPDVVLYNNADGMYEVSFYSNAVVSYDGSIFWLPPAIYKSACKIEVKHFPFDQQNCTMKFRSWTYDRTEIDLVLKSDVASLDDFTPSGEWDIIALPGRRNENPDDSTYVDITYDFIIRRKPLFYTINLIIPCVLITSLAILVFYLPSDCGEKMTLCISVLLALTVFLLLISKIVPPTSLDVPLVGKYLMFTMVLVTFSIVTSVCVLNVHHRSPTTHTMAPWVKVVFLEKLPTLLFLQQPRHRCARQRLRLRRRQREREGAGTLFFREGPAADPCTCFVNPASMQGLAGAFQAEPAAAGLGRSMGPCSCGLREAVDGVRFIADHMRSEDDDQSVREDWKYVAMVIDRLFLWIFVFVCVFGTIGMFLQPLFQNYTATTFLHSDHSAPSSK
T2 sequence (Q8BMN3 31-464 partner): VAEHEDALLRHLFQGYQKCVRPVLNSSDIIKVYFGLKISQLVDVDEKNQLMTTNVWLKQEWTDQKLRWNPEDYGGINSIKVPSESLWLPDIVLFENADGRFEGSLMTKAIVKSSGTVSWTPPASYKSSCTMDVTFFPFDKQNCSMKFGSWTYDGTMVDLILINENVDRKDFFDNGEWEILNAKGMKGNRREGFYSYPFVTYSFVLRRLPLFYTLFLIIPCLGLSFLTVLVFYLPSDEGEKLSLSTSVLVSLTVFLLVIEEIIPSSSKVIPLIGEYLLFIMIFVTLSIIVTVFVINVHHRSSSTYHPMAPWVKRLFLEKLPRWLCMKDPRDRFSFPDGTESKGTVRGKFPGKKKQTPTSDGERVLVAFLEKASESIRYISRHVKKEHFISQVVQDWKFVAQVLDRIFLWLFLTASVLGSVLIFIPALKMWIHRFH
Chain of α7-nAChR (P49582 23-502): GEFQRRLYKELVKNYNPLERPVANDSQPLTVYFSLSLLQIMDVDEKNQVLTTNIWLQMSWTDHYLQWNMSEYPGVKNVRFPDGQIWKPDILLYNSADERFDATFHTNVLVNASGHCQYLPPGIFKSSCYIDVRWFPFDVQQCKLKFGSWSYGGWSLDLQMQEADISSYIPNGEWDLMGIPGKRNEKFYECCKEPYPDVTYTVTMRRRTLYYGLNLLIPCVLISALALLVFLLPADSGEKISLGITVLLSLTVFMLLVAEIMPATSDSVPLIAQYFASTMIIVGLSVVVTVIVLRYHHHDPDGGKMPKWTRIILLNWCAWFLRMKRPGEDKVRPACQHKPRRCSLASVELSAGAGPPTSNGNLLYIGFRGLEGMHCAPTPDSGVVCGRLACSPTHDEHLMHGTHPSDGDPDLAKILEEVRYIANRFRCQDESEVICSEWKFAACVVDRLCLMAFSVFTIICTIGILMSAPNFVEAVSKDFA
T1 sequence (O70174 31-629): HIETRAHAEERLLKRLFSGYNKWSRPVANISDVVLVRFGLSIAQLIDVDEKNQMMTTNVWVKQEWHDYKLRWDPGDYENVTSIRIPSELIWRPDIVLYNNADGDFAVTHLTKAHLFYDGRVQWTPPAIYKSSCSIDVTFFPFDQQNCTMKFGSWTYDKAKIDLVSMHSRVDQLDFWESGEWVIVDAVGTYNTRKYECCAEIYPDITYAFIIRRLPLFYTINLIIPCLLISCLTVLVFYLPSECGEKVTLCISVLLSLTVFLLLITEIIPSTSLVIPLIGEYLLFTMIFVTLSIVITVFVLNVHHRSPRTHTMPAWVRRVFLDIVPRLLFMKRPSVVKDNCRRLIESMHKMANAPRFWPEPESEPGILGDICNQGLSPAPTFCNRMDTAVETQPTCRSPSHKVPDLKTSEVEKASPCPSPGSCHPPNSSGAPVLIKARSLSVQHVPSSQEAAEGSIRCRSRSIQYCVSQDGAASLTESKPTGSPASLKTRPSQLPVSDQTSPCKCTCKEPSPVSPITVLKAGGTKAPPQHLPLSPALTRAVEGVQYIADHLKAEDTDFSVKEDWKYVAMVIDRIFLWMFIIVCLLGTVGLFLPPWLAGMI
T1 sequence (Q9ERK7 26-501): as the sequence (Q9ERK7 26-501) above
Chain of α3β4*-nAChR (Q8R4G9 26-499): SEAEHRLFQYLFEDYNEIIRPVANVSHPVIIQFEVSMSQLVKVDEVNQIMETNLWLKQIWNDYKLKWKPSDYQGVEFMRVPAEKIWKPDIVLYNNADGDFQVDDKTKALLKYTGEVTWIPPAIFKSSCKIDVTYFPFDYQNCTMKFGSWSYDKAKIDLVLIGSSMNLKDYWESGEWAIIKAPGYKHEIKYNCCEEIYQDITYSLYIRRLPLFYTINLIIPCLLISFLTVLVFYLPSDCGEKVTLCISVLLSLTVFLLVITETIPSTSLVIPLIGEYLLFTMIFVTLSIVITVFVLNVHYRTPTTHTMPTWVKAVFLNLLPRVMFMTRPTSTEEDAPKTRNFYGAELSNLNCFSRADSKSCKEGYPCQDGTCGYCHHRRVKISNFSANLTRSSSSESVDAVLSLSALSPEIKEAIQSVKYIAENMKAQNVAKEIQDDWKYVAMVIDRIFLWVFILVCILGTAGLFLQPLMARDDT
Chain of α3β4*-nAChR (Q8R493 21-495): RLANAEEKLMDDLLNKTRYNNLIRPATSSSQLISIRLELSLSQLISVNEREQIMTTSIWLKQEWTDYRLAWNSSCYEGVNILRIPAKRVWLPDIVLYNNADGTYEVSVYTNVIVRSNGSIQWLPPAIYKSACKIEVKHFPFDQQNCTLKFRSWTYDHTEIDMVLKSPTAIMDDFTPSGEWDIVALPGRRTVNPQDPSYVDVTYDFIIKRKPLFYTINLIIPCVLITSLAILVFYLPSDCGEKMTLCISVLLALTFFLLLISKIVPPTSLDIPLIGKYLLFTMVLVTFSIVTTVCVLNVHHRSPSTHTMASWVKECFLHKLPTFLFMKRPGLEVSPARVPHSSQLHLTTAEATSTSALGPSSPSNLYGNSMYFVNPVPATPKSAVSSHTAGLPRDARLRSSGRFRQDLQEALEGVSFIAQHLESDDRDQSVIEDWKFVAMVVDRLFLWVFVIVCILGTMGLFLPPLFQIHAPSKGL

Q: With “2-((5-chloropyridin-3-yloxy)methyl)quinuclidine [Compound 11]” as the molecule, how does the “Efficacy α4β2* (first number, [3H]DA release)” value [1] read?
A: -100 ± 9%

Q: And the “Reduction of antagonist potency at α4β2* relative to Compound 5” value [1]?
A: 16 fold

Q: What about the Ki [1, 13] of the same molecule?
A: 490 nM

Q: And the “Efficacy α6β2*” value [2]?
A: -100 ± 18%

Q: What about the “Reduction of antagonist potency at α6β2* relative to Compound 5” value [2] of the same molecule?
A: 2 fold

Q: What about the Ki ([2]; read-out: Ki α6β2* (marked #)) of the same molecule?
A: 910 ± 656 nM

Q: And the “Efficacy α7” value [3]?
A: 31% and 31 ± 12%

Q: What about the EC50 ([3]; peak current, GH4C1 cells) of the same molecule?
A: 4260 ± 730 nM

Q: And the “Efficacy α3β4*” value [4]?
A: 8% and 8 ± 2%

Q: And the “Functional character at α3β4*” value [4]?
A: partial agonists

Q: And the EC50 ([4]; read-out: EC50 α3β4*, activation, [3H]ACh release)?
A: 7000 ± 1000 nM

Q: What about the “Physiological effect α4L9'Aβ2*” value ([5]; mouse, in vivo) of the same molecule?
A: did not have intrinsic activity, nor did they block the effect of nicotine; also recorded: inconclusive

Q: Which “Temperature drop in α4L9'A mice” value ([5]; 0.03 mg/kg i.p.) does the source give for `c1cncc(C2CC3CCN2CC3)c1` (racemic) [Compound 1, (±)-2-(-3-pyridinyl)-1-azabicyclo[2.2.2]octane] here?
A: ~8 °

Q: And the “Physiological effect α4L9'Aβ2*” value ([5]; mouse, in vivo)?
A: hypothermia (0.03)

Q: What about the “Increase in activity over saline in α6L9'S mice” value ([6]; 0.01 mg/kg i.p.) of the same molecule?
A: ~290%

Q: What about the “Physiological effect α6L9'Sβ2*” value [7] of the same molecule?
A: locomotor activation; also recorded: activation (0.01) ^2

Q: Which Ki [8] does the source give for `c1cncc(C2C3CCN2CC3)c1` (centres unmarked) [Compound 2, 7-(pyridin-3-yl)-1-azabicyclo[2.2.1]heptane] here?
A: 32.9 ± 1.3 nM

Q: What about the EC50 [1, 14] of the same molecule?
A: 1040 ± 280 nM

Q: What about the EC50 [2, 15] of the same molecule?
A: 50 ± 23 nM

Q: And the “Functional character at α6β2*” value ([2]; α-CtxMII-sensitive DA release)?
A: full agonist

Q: And the “Functional character at α7” value [3]?
A: full agonist

Q: And the Emax [3]?
A: 108%

Q: And the EC50 [4]?
A: 4200 ± 500 nM

Q: And the “Functional character at α3β4*” value [4]?
A: full or nearly full agonists

Q: And the “Physiological effect α4L9'Aβ2*” value [5, 16]?
A: elicited responses; also recorded: hypothermia (0.03)

Q: And the “Physiological effect α6L9'Sβ2*” value [6]?
A: elicited responses; also recorded: locomotor activation; also recorded: activation (0.1)

Q: For `c1cncc(C2CCC3CCN2CC3)c1` (centres unmarked) [Compound 3, 2-(pyridine-3-yl)-1-azabicyclo[3.2.2]nonane], which Ki [8] is on record?
A: 2.2 ± 0.5 nM

Q: What about the Ki [1, 17] of the same molecule?
A: 14 nM

Q: And the Ki [2]?
A: 52 ± 22 nM

Q: What about the “Functional character at α7” value [3] of the same molecule?
A: full agonists

Q: What about the Emax [3] of the same molecule?
A: 106%

Q: What about the EC50 [4, 18] of the same molecule?
A: 2200 ± 300 nM

Q: And the “Functional character at α3β4*” value [4]?
A: full or nearly full agonists

Q: What about the “Physiological effect α4L9'Aβ2*” value ([5]; mouse, in vivo) of the same molecule?
A: blocked the effects of 0.1 mg/kg nicotine; also recorded: block (0.002)

Q: For `c1cncc(C2C3CC4CC(C3)CN2C4)c1` (centres unmarked) [Compound 4, 1-aza-2-(3-pyridinyl)-tricyclo[3.3.1.13,7]decane], which Ki [8] is on record?
A: 64.5 ± 5.5 nM

Q: What about the Ki [1, 17] of the same molecule?
A: 78 nM

Q: What about the Ki [2] of the same molecule?
A: 570 ± 299 nM

Q: And the EC50 ([4]; EC50 α3β4* [3H]-ACh release)?
A: 8500 nM

Q: What about the EC50 [4, 18] of the same molecule?
A: 34000 ± 8000 nM

Q: What about the “Functional character at α3β4*” value [4] of the same molecule?
A: full or nearly full agonists

Q: What about the “Physiological effect α4L9'Aβ2*” value ([5]; mouse, in vivo) of the same molecule?
A: blocked the effects of 0.1 mg/kg nicotine; also recorded: block (0.01)

Q: For `c1cncc(CC2CC3CCN2CC3)c1` (centres unmarked) [Compound 5, 2-(pyridin-3-ylmethyl)quinuclidine], which “Functional character at α3β4*” value [4] is on record?
A: full or nearly full agonists

Q: What about the “Physiological effect α4L9'Aβ2*” value ([5]; mouse, in vivo) of the same molecule?
A: did not have intrinsic activity, nor did they block the effect of nicotine; also recorded: no effect

Q: For `c1ccc(-c2cncc(C3CC4CCN3CC4)c2)cc1` [Compound 6, (4S)-2-(5-phenylpyridin-3-yl)quinuclidine], which “Decrease in α7 binding affinity relative to Compound 1” value [8] is on record?
A: approximately 50 fold

Q: And the “Efficacy α4β2* (first number, [3H]DA release)” value [1]?
A: -94 ± 2%

Q: And the Ki [1, 13]?
A: 230 nM

Q: And the “Efficacy α6β2*” value [2]?
A: -100 ± 19%

Q: And the Ki ([2]; read-out: Ki α6β2* (marked #))?
A: 1780 ± 1740 nM

Q: And the “Efficacy α7” value [3]?
A: 18 ± 6%

Q: And the EC50 ([3]; peak current, GH4C1 cells)?
A: 29000 ± 5400 nM

Q: And the “Efficacy α3β4*” value [4]?
A: -100 ± 7%

Q: What about the “Functional character at α3β4*” value [4] of the same molecule?
A: full antagonists

Q: And the Ki ([4]; read-out: Ki α3β4* (marked #))?
A: 660 ± 170 nM

Q: With `N#Cc1ccc(Oc2cncc(C3CC4CCN3CC4)c2)cc1` (centres unmarked) [Compound 7, 4-(5-(quinuclidin-2-yl)pyridin-3-yloxy)benzonitrile] as the molecule, how does the Ki [8] read?
A: 23.4 ± 7.9 nM

Q: What about the Ki [1, 17] of the same molecule?
A: 66 nM

Q: What about the “Antagonist potency at α6β2* relative to Compound 6 (times more potent)” value [2] of the same molecule?
A: 40 times

Q: What about the Ki [2] of the same molecule?
A: 48 ± 3 nM

Q: What about the Ki [4] of the same molecule?
A: 7000 ± 2000 nM

Q: And the “Functional character at α3β4*” value [4]?
A: full or nearly full agonists

Q: What about the “Physiological effect α4L9'Aβ2*” value ([5]; mouse, in vivo) of the same molecule?
A: blocked the effects of 0.1 mg/kg nicotine; also recorded: block (0.01)

Q: And the “Physiological effect α6L9'Sβ2*” value [6]?
A: block (0.1)

Q: What does the source list for `CNCC/C=C/c1cccnc1` [Compound 8, (E)-N-methyl-4-(3-pyridinyl)-3-butene-1-amine]?
A: Ki [8]: 3070 ± 800 nM; EC50 [1]: 14800 ± 10100 nM; Functional character at α6β2* ([2]; α-CtxMII-sensitive DA release): no measurable activity; Emax [3]: 17 ± 7%; Functional character at α3β4* [4]: partial agonists; Physiological effect α4L9'Aβ2* ([5]; mouse, in vivo): elicited responses; also recorded: hypothermia (0.2); Physiological effect α6L9'Sβ2* [7]: elicited responses; also recorded: elicit a response; also recorded: activation (1.0) ^2

Q: Which results are given for `CNC(C)C/C=C/c1cncc(C#Cc2ccccc2)c1` (centres unmarked) [Compound 9, (E)-N-methyl-5-(5-(phenylethynyl)pyridin-3-yl)pent-4-en-2-amine]?
A: Ki [8]: 30700 ± 4100 nM; Ki [1, 17]: 3900 nM; Inhibition at α6β2* (partial antagonism) [2]: ~50%; Ki [2]: 4100 ± 83 nM; Efficacy α7 [3]: naa; EC50 α7 ([3]; peak current, GH4C1 cells): naa; Ki [4]: 14000 ± 300 nM; Functional character at α3β4* [4]: full antagonists; Physiological effect α4L9'Aβ2* ([5]; mouse, in vivo): did not have intrinsic activity, nor did they block the effect of nicotine; also recorded: no effect

Q: For `CN1[C@@H]2CC[C@H]1C=C(c1cncc(Br)c1)C2` [Compound 10, (1R,5S)-3-(5-bromopyridin-3-yl)-8-methyl-8-azabicyclo[3.2.1]oct-3-ene], which Ki [8] is on record?
A: 128 ± 36 nM

Q: And the “Efficacy as % of Compound 8, α-CtxMII-resistant DA release” value [1]?
A: 25%

Q: What about the “Increase in potency relative to Compound 8, α-CtxMII-resistant DA release” value [1] of the same molecule?
A: 83 fold

Q: What about the EC50 [1, 14] of the same molecule?
A: 178 ± 94 nM

Q: What about the EC50 ([1]; EC50 α-CtxMII-resistant (α4β2*) [3H]-DA release) of the same molecule?
A: 180 nM

Q: What about the EC50 [2, 15] of the same molecule?
A: 117 ± 69 nM

Q: And the EC50 ([2]; EC50 α-CtxMII-sensitive (α6β2*) [3H]-DA release)?
A: 120 nM

Q: What about the “Functional character at α6β2*” value ([2]; α-CtxMII-sensitive DA release) of the same molecule?
A: partial agonist

Q: And the Emax [3]?
A: 55 ± 9%

Q: And the EC50 [4, 18]?
A: 7200 ± 600 nM

Q: And the “Functional character at α3β4*” value [4]?
A: partial agonists

Q: And the “Physiological effect α4L9'Aβ2*” value ([5]; mouse, in vivo)?
A: elicited responses; also recorded: hypothermia (0.1)

Q: What about the “Physiological effect α6L9'Sβ2*” value [6] of the same molecule?
A: elicited responses; also recorded: locomotor activation; also recorded: activation (0.1)

Q: For `CN1CCC[C@H]1c1cccnc1` [Nicotine, (-)-nicotine tartrate], which “Temperature decrease in α6L9'S mice” value [9] is on record?
A: < 1 °C

Q: And the “Locomotor activation, % of saline activity in α6L9'S mice” value ([7]; 0.15 mg/kg ip)?
A: ~350%

Q: And the “Physiological effect α6L9'Sβ2*” value [7]?
A: activation (0.1) ^2

Q: And the “Physiological effect α6L9'Sβ2*” value ([7]; listed as nicotine)?
A: locomotor hyperactivity

Q: And the “Temperature decrease in α4L9'A mice” value ([10]; 0.03 mg/kg)?
A: 3 °C

Q: What about the “Physiological effect α4L9'Aβ2*” value [10] of the same molecule?
A: hypothermia (0.01) ^1

Q: What about the “Physiological effect α4L9'Aβ2*” value ([10]; listed as nicotine) of the same molecule?
A: hypothermia

Q: For `c1cnc2cc3c(cc2n1)[C@@H]1CNC[C@H]3C1` [Varenicline, reference compound], which Ki [8] is on record?
A: 42 ± 5 nM

Q: What about the EC50 [1] of the same molecule?
A: 50 ± 12 nM

Q: And the EC50 [2]?
A: 77 ± 169 nM

Q: And the Emax [3]?
A: 78 ± 24%

Q: What about the EC50 [4] of the same molecule?
A: 12000 ± 300 nM

Q: And the “Physiological effect α4L9'Aβ2*” value [5, 16]?
A: hypothermia (0.001)

Q: And the “Physiological effect α6L9'Sβ2*” value [6]?
A: activation (0.1)

Q: What about the “Physiological effect α6L9'Sβ2*” value ([6]; listed as varenicline) of the same molecule?
A: locomotor hyperactivity

Q: With `O=c1cccc2n1C[C@@H]1CNC[C@H]2C1` [cytisine] as the molecule, how does the “Efficacy at α4β2*-nAChRs” value [11] read?
A: 37%

Q: And the “Efficacy at α6β2*” value [12]?
A: 71%
